Laboratory results as given in patent US20230132582A1, “NOVEL USE OF ASPIRIN COMPOUND IN INCREASING NUCLEIC ACID EXPRESSION” (priority 2020, published 2023).

Columns and labels:
IFN-α [1] = assay: Serum IFN-α ELISA after AAV8, AAV9 or AAV843 injection in aspirin-treated mice (Example 4); format: in vivo, C57BL/6J mice
Protocol: (§1) Blood samples of mice were collected by retro-orbital bleeding. Half of the volume of blood samples was added with sodium citrate at a ratio of 1:9 for anticoagulation, mixed, centrifuged within 30 minutes (6000 rpm, 5 mins), and the supernatant was collected as the mouse plasma, for detection of the expression of Gluc. The remaining blood sample was left at room temperature for 2 hours to separate the serum, centrifuged at 6000 rpm for 15 min, and the supernatant was collected as the mouse serum sample. The contents of IFN-α and IFN-β were determined by using Mouse IFN-β ELISA kit (720131-2, Shanghai Mlbio Co., Ltd.), LEGEND MAX™ Mouse IFN-β ELISA Kit (439407, BioLegend), and Mouse IFN-α ELISA kit (706291-2, Shanghai Mlbio Co., Ltd.).
(§2) The injection dose of 50 mg/kg aspirin was used in further study of AAV-mediated expression of exogenous genes by three different AAV serotypes. The study design was similar to that of Example 2. Briefly, for each AAV serotype (i.e., AAV8-Lxp3.3-Gluc, AAV9-Lxp3.3-Gluc, or AAV843-Lxp3.3-Gluc), male C57BL/6J mice (purchased from Shanghai Jiesijie Experimental Animals Co., Ltd.) (n=4) with an average weight of 20 g were divided into two groups. One group was injected with aspirin at 50 mg/kg for 7 consecutive days, and the other group was injected with 5% castor oil (in PBS buffer (catalogue number: 02-024-1ACS, BI)) as a control. On Day 8, 5×10^12 vg/kg of AAV8-Lxp3.3-Gluc, AAV9-Lxp3.3-Gluc, or AAV843-Lxp3.3-Gluc virus (diluted in 150-200 μl PBS) was delivered to each mouse by tail vein injection. Blood sample were collected and expression level of luciferase was detected following the same methods as described in Example 2.
(§3) In the study described in Example 3, the level of IFN-α and IFN-β were determined by using Mouse IFN-β ELISA kit (720131-2, Shanghai Mlbio Co., Ltd.), LEGEND MAX™ Mouse IFN-β ELISA Kit (439407, BioLegend), and Mouse IFN-α ELISA kit (706291-2, Shanghai Mlbio Co., Ltd.) according to the user's manual.

[2] = tested on: expression of luciferase from AAV9-Lxp3.3-Gluc; assay: Luciferase expression after AAV9-Lxp3.3-Gluc injection in aspirin-treated mice (Example 3); format: in vivo, C57BL/6J mice
Protocol: as §1
(§4) Coelenterazine h (40906ES02, Shanghai Yeasen Biotech Co., Ltd.) buffer was prepared first: to 500 mL of ultra-pure water was added 29.72 g of sodium ascorbate, and then 50 mL of Tris-HCl (1 mol/L, pH 7.4). […] of the above working solution is added to a […], and the relative light unit (RLU) was detected with a Synergy H1 multifunctional microplate reader.
(§5) The injection dose of 50 mg/kg aspirin was used in further study of AAV-mediated expression of exogenous genes by three different AAV serotypes. […] Blood sample were collected and expression level of luciferase was detected following the same methods as described in Example 2.

[3] = tested on: expression level of the transgene (AAV); assay: Co-administration of AAV and aspirin, transgene expression (preliminary); format: in vivo; conditions: co-administration of AAV and aspirin in one formulation or separate formulations at the same time; preliminary results
Text: Studies have been conducted for co-administration of AAV and aspirin either in one formulation or in separate formulations but at the same time.

[4] = tested on: Gluc expression from AAV9-CB-Gluc in brain; assay: Gluc mRNA and enzymatic activity in brain after AAV9-CB-Gluc with aspirin (Example 6); format: in vivo, mice; conditions: for enzymatic activity level of Gluc, up-regulation vs non-treatment group: p<0.01 (FIG. 7B)
Protocol: (§6) Expression of exogenous gene was detected in mice either pre-treated with Aspirin, or co-administered with Aspirin. AAV9-CB-Gluc was prepared according to methods provided in Example 1, except that nucleic acid sequence for CB promoter (see SEQ ID NO: 3) was used. In brief, Aspirin was pre-administrated to a group of mice at 50 mg/kg by intraperitoneal injection for 7 days, followed by administration of AAV9-CB-Gluc (5×10^13 vg/kg) at day 8. In comparison, a group of mice without pre-administration of Aspirin was administrated with Aspirin at 50 mg/kg simultaneously in combination with AAV9-CB-Gluc. 15 days after the AAV9-CB-Gluc administration, the mice were sacrificed, and brain and liver were collected for determination of expression Gluc.

IFN-α [5] = assay: Serum IFN-α ELISA after AAV9 injection with aspirin at different doses (Example 2); format: in vivo, C57BL/6J mice; conditions: Day 3 post AAV9 injection, vs control group (FIG. 2)
Protocol: (§7) Male C57BL/6J mice (purchased from Shanghai Jiesijie Experimental Animals Co., Ltd.) (n=4) with an average weight of 20 g were divided into six groups. Aspirin was used for intraperitoneal injection for 7 consecutive days (Day −7 to Day −1), at doses of 1 mg/kg, 15 mg/kg, 30 mg/kg, 50 mg/kg, 100 mg/kg, respectively, to five groups of mice. The sixth group was injected with 5% castor oil (in PBS buffer (catalogue number: 02-024-1ACS, BI)) as a control. On Day 0, AAV9-Lxp3.3-Gluc virus was injected intravenously (5×10^12 vg/kg) to each mouse in every group, and expression of luciferase was detected from Day 1 onwards.
as §1

[6] = tested on: IDS enzyme activity in brain (AAV9-CB-IDS); assay: IDS enzyme activity in brain of MPSII mice after AAV9-CB-IDS with aspirin pre-treatment (Example 7); format: in vivo, B6N.Cg-Ids^tm1Muen/J mice (MPSII model)
Protocol: The effects of aspirin on improving the expression of therapeutic transgene in brain were determined. AAV9-CB-IDS vector were produced using methods described in Example 1, except that iduronate 2-sulfatase (IDS) gene expression cassette was inserted between the AAV ITRs. The gene encoding IDS was provided in SEQ ID NO: 7 and the protein sequence of IDS was provided in SEQ ID NO: 11. […] A group of wild-type control mice was used as control. The AAV9-CB-IDS vector for treating MPSII was administrated as described in Example 1, at a dose of 3×10^13 vg/kg (i.e. 3E13 group) or 1×10^14 vg/kg (i.e. 1E14 group) to mice pre-treated with aspirin injection. One month after the AAV9-CB-IDS injection, the IDS enzyme activity was detected in brain (FIG. 8).

[7] = tested on: expression of luciferase from AAV9-Lxp3.3-Gluc virus; assay: AAV9-mediated luciferase (Gluc) expression in plasma of mice pre-treated with aspirin at different doses (Example 2); format: in vivo, C57BL/6J mice
Protocol: as §7
Blood samples of mice were collected by retro-orbital bleeding. […] The contents of IFN-α and IFN-β were determined by using Mouse IFN-β ELISA kit (720131-2, Shanghai Mlbio Co., Ltd.), LEGEND MAX™ Mouse IFN-β ELISA Kit (439407, BioLegend), and Mouse IFN-α ELISA kit (706291-2, Shanghai Mlbio Co., Ltd.).
as §4

[8] = tested on: expression of luciferase from AAV843-Lxp3.3-Gluc; assay: Luciferase expression after AAV843-Lxp3.3-Gluc injection in aspirin-treated mice (Example 3); format: in vivo, C57BL/6J mice
Protocol: as §1, §4, §5

IFN-β = assay: Serum IFN-β ELISA after AAV8, AAV9 or AAV843 injection in aspirin-treated mice (Example 4); format: in vivo, C57BL/6J mice
Protocol: as §1, §2, §3

[9] = tested on: Gluc expression from AAV9-CB-Gluc in liver; assay: Gluc mRNA and enzymatic activity in liver after AAV9-CB-Gluc with aspirin (Example 6); format: in vivo, mice
Protocol: as §6

[10] = tested on: expression of luciferase from AAV8-Lxp3.3-Gluc; assay: Luciferase expression after AAV8-Lxp3.3-Gluc injection in aspirin-treated mice (Example 3); format: in vivo, C57BL/6J mice
Protocol: as §1, §4, §5

In the case of `CC(=O)Oc1ccccc1C(=O)O` [aspirin, Acetylsalicylic acid], the IFN-α level (IFN-α [1]; after AAV8 injection, aspirin 50 mg/kg 7 days, control significantly higher except Day 31 (FIG. 4A)) is reported as “maintained at a relatively low level”, the IFN-α level (IFN-α [1]; after AAV9 injection, aspirin 50 mg/kg 7 days, vs control group (FIG. 5A)) is reported as “significantly lower than that in the control group” and the IFN-α level (IFN-α [1]; after AAV843 injection, Day 31, aspirin treatment vs control group (FIG. 6A)) is reported as “no significant difference”. The IFN-α level (IFN-α [1]; after AAV843 injection, aspirin 50 mg/kg 7 days, vs control group, before Day 31 (FIG. 6A)) was “significantly lower than those in the control group”, the “transduction in vivo (expression of luciferase)” value (“transduction in vivo” for short) ([2]; aspirin 50 mg/kg 7 consecutive days, AAV9-Lxp3.3-Gluc 5×10^12 vg/kg tail vein, vs control (FIG. 3B)) was “remarkably promote” and the “day of peak expression of luciferase after AAV injection” value (shortened to “day of peak expression of luciferase”) ([2]; aspirin 50 mg/kg 7 days, AAV9-Lxp3.3-Gluc, control groups also peaked on Day 15) was 15 days. The “expression level of the transgene” value [3] was “increase the expression level of the transgene”, the “mRNA level of Gluc, up-regulation vs non-treatment group” value ([4]; aspirin 50 mg/kg simultaneously with AAV9-CB-Gluc, 15 days after AAV (FIG. 7A)) was 2.95 fold and the “enzymatic activity level of Gluc, up-regulation vs non-treatment group” value ([4]; aspirin 50 mg/kg simultaneously with AAV9-CB-Gluc, 15 days after AAV) was 3.55 fold. For the same compound, the “mRNA level of Gluc, up-regulation vs non-treatment group” value ([4]; pre-injection of aspirin 50 mg/kg i.p. 7 days, AAV9-CB-Gluc 5×10^13 vg/kg day 8, 15 days after AAV, p<0.01 (FIG. 7A)) was 5.5 fold, the “enzymatic activity level of Gluc, up-regulation vs non-treatment group” value ([4]; pre-injection of aspirin 50 mg/kg i.p. 7 days, AAV9-CB-Gluc 5×10^13 vg/kg day 8, 15 days after AAV) was 7.13 fold and the “level of IFN-α on Day 3” value (IFN-α [5]; aspirin 50 mg/kg) was “significantly lower”. The “level of IFN-α on Day 3” value (IFN-α [5]; aspirin 100 mg/kg) was “significantly lower”, the “IDS enzyme activity in brain vs wild type mice group” value ([6]; aspirin pre-treatment (50 mg/kg) + AAV9-CB-IDS 3×10^13 vg/kg, one month after injection (FIG. 8)) was “even higher than that of the wild type mice group” and the “IDS enzyme activity in brain vs group receiving no aspirin but only AAV9-CB-IDS” value ([6]; aspirin pre-treatment + AAV9-CB-IDS 3×10^13 vg/kg vs AAV9-CB-IDS alone at 3×10^13 vg/kg (p<0.05) or 10^14 vg/kg, one month (FIG. 8)) was “significantly higher”. For the same compound, the “expression level of luciferase” value ([7]; 100 mg/kg of aspirin i.p. 7 days before AAV9-Lxp3.3-Gluc 5×10^12 vg/kg i.v., compared with other doses (FIG. 1)) was “highest expression level”, the “expression level of luciferase” value ([7]; aspirin i.p. 7 consecutive days at 1, 15, 30, 50, 100 mg/kg before AAV9-Lxp3.3-Gluc 5×10^12 vg/kg i.v., comparison across dose groups (FIG. 1)) was “dose dependent increase” and the “transduction in vivo” value ([8]; aspirin 50 mg/kg 7 consecutive days, AAV843-Lxp3.3-Gluc 5×10^12 vg/kg tail vein, vs control (FIG. 3C)) was “remarkably promote”. For the same compound, the “day of peak expression of luciferase” value ([8]; aspirin 50 mg/kg 7 days, AAV843-Lxp3.3-Gluc, control groups also peaked on Day 15) was 15 days, the “IFN-β level in the control group versus the aspirin treatment group” value (IFN-β; after AAV8 injection, aspirin 50 mg/kg 7 days (FIG. 4B)) was “always significantly higher than that in the aspirin treatment group” and the IFN-β level (IFN-β; after AAV9 injection, aspirin 50 mg/kg 7 days, Day 1 to Day 31, significantly different from control Day 1 to Day 23 (FIG. 5B)) was “maintained at a low level”. The IFN-β level (IFN-β; after AAV843 injection, Day 31, aspirin treatment vs control group (FIG. 6B)) was “no significant difference”, the IFN-β level (IFN-β; after AAV843 injection, aspirin 50 mg/kg 7 days, vs control group, before Day 31 (FIG. 6B)) was “significantly lower than those in the control group” and the “mRNA level of Gluc vs non-treatment group” value ([9]; aspirin 50 mg/kg simultaneously with AAV9-CB-Gluc (FIG. 7C)) was “even lower than that of the non-treatment group”. For the same compound, the “level of enzymatic activity of Gluc vs non-treatment group” value ([9]; aspirin 50 mg/kg simultaneously with AAV9-CB-Gluc (FIG. 7D)) was “not significantly different”, the “level of enzymatic activity of Gluc, up-regulation vs non-treatment group” value ([9]; pre-injection of aspirin 50 mg/kg i.p. 7 days, AAV9-CB-Gluc 5×10^13 vg/kg, p<0.01 (FIG. 7D)) was 1.95 fold and the “level of mRNA of Gluc, up-regulation vs non-treatment group” value ([9]; pre-injection of aspirin 50 mg/kg i.p. 7 days, AAV9-CB-Gluc 5×10^13 vg/kg, p<0.05 (FIG. 7C)) was 1.43 fold. The “transduction in vivo” value ([10]; aspirin 50 mg/kg 7 consecutive days, AAV8-Lxp3.3-Gluc 5×10^12 vg/kg tail vein, vs control (FIG. 3A)) was “remarkably promote” and the “day of peak expression of luciferase” value ([10]; aspirin 50 mg/kg 7 days, AAV8-Lxp3.3-Gluc, control groups also peaked on Day 15) was 15 days.
